Assay results as given in ChEMBL document CHEMBL1201862, “PubChem BioAssay data set” (2004).
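Cells were grown in 96-well plates and exposed to each compound for 48 hours at five concentrations; endpoints were interpolated linearly between bracketing concentrations, or set to the highest concentration if not reached. Abbreviation: GI50, concentration required for 50% inhibition of growth.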 Activity calls are given as the source filed them. Rule as the data show it: active = GI50 up to about 1.1 µM and inactive = higher.

Tests used:
Experiment in all cases: NCI-60 cell line screen, 48 h
[1] = system: SF-295
[2] = system: LXFL 529
[3] = system: OVCAR-3
[4] = system: SK-MEL-2
[5] = system: DMS-114
[6] = system: UACC-257
[7] = system: SNB-75
[8] = system: HL-60
[9] = system: DLD-1
[10] = system: SNB-78
[11] = system: LOX IMVI
[12] = system: NCI-H522
[13] = system: KM-20L2
[14] = system: SN12C
[15] = system: T47D
[16] = system: MDA-MB-435
[17] = system: NCI/ADR-RES
[18] = system: MDA-MB-231
[19] = system: BT-549
[20] = system: DU-145

Measured: GI50

COC(=O)C(=O)C(C(=O)C(=O)Nc1ccc([N+](=O)[O-])cc1C#N)c1nc2ccc([N+](=O)[O-])cc2nc1O (stereo unspecified)
inactive: [1] > 100 µM | [2] > 100 µM | [3] > 100 µM | [4] > 100 µM | [5] > 100 µM | [6] > 100 µM | [7] > 100 µM | [8] > 100 µM | [9] > 100 µM | [10] > 100 µM | [11] > 100 µM | [12] > 100 µM | [13] > 100 µM | [14] > 100 µM

CC1=C(C(=O)CC(=O)C(=O)Nc2ccccc2C(F)(F)F)Sc2ccccc2N1
inactive: [1] 47.4 µM | [2] 35.7 µM | [3] 25.4 µM | [4] > 100 µM | [5] 32.6 µM | [6] 42.2 µM | [7] 4.23 µM | [8] 35.4 µM | [9] 76 µM | [10] 47.3 µM | [11] 59.3 µM | [12] 24.5 µM | [13] > 100 µM | [14] 56.4 µM

Nc1nc(-c2ccco2)cc(-c2ccc(CO)o2)n1
inactive: [1] > 100 µM | [2] > 100 µM | [3] > 100 µM | [4] > 100 µM | [5] > 100 µM | [7] 72.9 µM | [8] > 100 µM | [10] > 100 µM | [11] > 100 µM | [12] 85.5 µM | [13] > 100 µM | [14] > 100 µM

CC1(C)C2C/C(=C\c3ccccc3)C(=O)C1C2 (stereo unspecified)
inactive: [1] > 100 µM | [2] > 100 µM | [3] > 100 µM | [4] > 100 µM | [5] 68.1 µM | [6] 58.1 µM | [7] 25.1 µM | [8] 35.9 µM | [9] 83.4 µM | [10] > 100 µM | [11] > 100 µM | [12] 40.9 µM | [14] > 100 µM

COc1ccc(/N=C(/[N-]n2c(=O)c(C)nn(C)c2=S)N(c2ccc(OC)cc2)c2n[n+]3c(=O)c(C)nn(C)c3s2)cc1
inactive: [1] > 100 µM | [2] > 100 µM | [5] > 100 µM | [6] > 100 µM | [7] > 100 µM | [8] > 100 µM | [9] > 100 µM | [10] > 100 µM | [11] > 100 µM | [12] > 100 µM | [13] > 100 µM | [14] > 100 µM

O=C1C[C@@H]2[C@@H](c3ccccc3)[C@@H]3C(=O)c4ccccc4NC(=O)[C@H]3[C@]2(O)c2ccccc2N1
inactive: [1] > 100 µM | [2] > 100 µM | [3] > 100 µM | [4] > 100 µM | [5] > 100 µM | [7] > 100 µM | [8] > 100 µM | [10] > 100 µM | [11] > 100 µM | [12] > 100 µM | [13] > 100 µM | [14] > 100 µM

N#Cc1cc([N+](=O)[O-])ccc1NC(=O)C(=O)Nc1n[nH]c(N)n1
inactive: [2] > 100 µM | [3] > 100 µM | [4] > 100 µM | [5] > 100 µM | [6] > 100 µM | [7] > 100 µM | [8] > 100 µM | [9] > 100 µM | [10] > 100 µM | [11] > 100 µM | [12] > 100 µM | [13] > 100 µM | [14] > 100 µM

O=C1N[C@@H]([C@H]2CC[C@H](Cl)CN2)C(=O)N[C@H]1[C@H]1CC[C@H](Cl)CN1
active: [1] 0.169 µM | [15] 0.297 µM | [5] 0.269 µM | [7] 0.507 µM | [8] 0.1 µM | [16] 1.06 µM | [17] 0.902 µM | [18] 0.925 µM | [11] 0.237 µM | [12] 0.706 µM | [14] 0.243 µM | [20] 0.108 µM
inactive: [3] 1.8 µM | [4] 2.56 µM | [6] 2.26 µM | [9] 4.92 µM | [10] 2.94 µM | [13] 4.93 µM | [19] 1.63 µM

CCOC(=O)C/C(N)=C(\C#N)C(=O)OCC
inactive: [1] > 100 µM | [2] > 100 µM | [3] > 100 µM | [4] > 100 µM | [5] > 100 µM | [7] > 100 µM | [8] > 100 µM | [9] > 100 µM | [10] > 100 µM | [11] > 100 µM | [12] > 100 µM | [13] > 100 µM | [14] > 100 µM

CCOC(OC(C)=O)[C@@H]1C=C[C@H](C)N(c2ccc([N+](=O)[O-])cc2)O1 (stereo partly specified)
inactive: [1] 11.4 µM | [2] 3.65 µM | [3] 5.66 µM | [4] 4.26 µM | [5] 4.69 µM | [6] 9.82 µM | [7] 4.79 µM | [8] 1.82 µM | [9] 2.59 µM | [10] 7.48 µM | [11] 1.87 µM | [12] 3.16 µM | [13] 8.55 µM | [14] 3.4 µM
